Structures are written as SMILES. Residue numbers refer to the chain shown, from its start. Where two headings read alike, the source gives them in different places. Where a SMILES comes first, the peptide text is derived from it. Bridges are numbered along the chain shown (N, C = ends).

What all share (test): IP1 accumulation
Holding throughout (type): cell-based

In one assay the target is T1, hCTR Y299A (Homo sapiens, UniProt P30988, Y299A).
T1 construct: c-Myc (N); expressed in transfected cells
T1 sequence (P30988 25-474 Y299A): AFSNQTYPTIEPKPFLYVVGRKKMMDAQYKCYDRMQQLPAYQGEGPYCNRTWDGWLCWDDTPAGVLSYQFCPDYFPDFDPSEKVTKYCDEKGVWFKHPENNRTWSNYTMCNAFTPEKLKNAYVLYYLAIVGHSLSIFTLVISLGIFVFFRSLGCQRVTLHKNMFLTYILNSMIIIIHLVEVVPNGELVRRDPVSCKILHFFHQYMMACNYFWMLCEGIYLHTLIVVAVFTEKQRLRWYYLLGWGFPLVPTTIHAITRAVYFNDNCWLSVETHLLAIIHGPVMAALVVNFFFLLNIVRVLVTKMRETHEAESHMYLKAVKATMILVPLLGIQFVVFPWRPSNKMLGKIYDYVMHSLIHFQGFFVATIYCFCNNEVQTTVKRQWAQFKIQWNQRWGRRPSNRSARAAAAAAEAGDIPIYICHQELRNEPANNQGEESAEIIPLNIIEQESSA
The conditions noted are these: mean ± S.E.M.; for Emax: IP1 maximal response, SEM. On the procedure: (§1) Cells (2.5 × 10^4 cells/well) were plated into 96 well trays and cultured overnight. Cells were stimulated with increasing concentration of ligands for 60 min in the presence of LiCl. Samples were lysed and endogenous IP1 was measured using an IP-One HTRF® assay kit (CisBio) as specified by the manufacturer. Data were normalized to the maximal response elicited by 100 μM of ATP.
(§2) Data were corrected for radioligand occupancy using the Cheng-Prusoff equation in Prism; as such data are reported as pKi. Emax and EC50 were estimated from concentration-response curves using with a 3-parameter logistic equation in Prism (v7). These values are a composite of functional affinity, efficacy and stimulus response coupling. […] Significance was accepted at P < 0.05.

Another assay addresses T2, hCTR K366A (Homo sapiens, UniProt P30988, K366A).
T2 construct: c-Myc (N); expressed in transfected cells
T2 sequence (P30988 25-474 K366A): T1 sequence (P30988 25-474 Y299A) with A275Y, K342A
The conditions noted are these: mean ± S.E.M.; for Emax: IP1 maximal response, SEM. The procedure:
as §1, §2

The next assay addresses T3, hCTR V283A (Homo sapiens, UniProt P30988, V283A).
T3 construct: expressed in transfected cells
T3 sequence (P30988 25-474 V283A): T1 sequence (P30988 25-474 Y299A) with V259A, A275Y
The following applies: mean ± S.E.M.; for Emax: IP1 maximal response, SEM. The procedure: as §1, §2

The target of the next assay is T4, hCTR L297A (Homo sapiens, UniProt P30988, L297A).
T4 construct: c-Myc (N); expressed in transfected cells
T4 sequence (P30988 25-474 L297A): T1 sequence (P30988 25-474 Y299A) with L273A, A275Y
The conditions noted are these: mean ± S.E.M.; for Emax: IP1 maximal response, SEM. The procedure:
as §1, §2

Another assay concerns the target T5, hCTR WT (Homo sapiens, UniProt P30988).
T5 construct: expressed in transfected cells
T5 sequence (P30988 25-474): T1 sequence (P30988 25-474 Y299A) with A275Y
The conditions noted are these: for Emax: read-out: Emax (% WT), SEM. On the procedure:
as §1, §2

Setting [1] is: IP1, CV1-FlpIn cells, 60 min, LiCl.

A word on the Emax: it is the maximal effect, on the per cent scale that the assay sets. `CC[C@H](C)[C@H](NC(=O)[C@H](C)NC(=O)[C@@H](NC(=O)[C@H](CCC(N)=O)NC(=O)[C@@H]1CCCN1C(=O)[C@H](Cc1ccccc1)NC(=O)[C@@H](NC(=O)[C@H](Cc1c[nH]cn1)NC(=O)[C@H](Cc1ccccc1)NC(=O)[C@H](CCCCN)NC(=O)[C@H](CC(N)=O)NC(=O)[C@H](Cc1ccccc1)NC(=O)[C@H](CC(=O)O)NC(=O)[C@H](CCC(N)=O)NC(=O)[C@@H](NC(=O)[C@H](Cc1ccc(O)cc1)NC(=O)[C@@H](NC(=O)CNC(=O)[C@H](CC(C)C)NC(=O)[C@H](CCSC)NC(=O)[C@@H]1CSSC[C@H](N)C(=O)NCC(=O)N[C@@H](CC(N)=O)C(=O)N[C@@H](CC(C)C)C(=O)N[C@@H](CO)C(=O)N[C@@H]([C@@H](C)O)C(=O)N1)[C@@H](C)O)[C@@H](C)O)[C@@H](C)O)[C@@H](C)O)C(=O)NCC(=O)N[C@H](C(=O)NCC(=O)N[C@@H](C)C(=O)N1CCC[C@H]1C(N)=O)C(C)C` [hCT]: the maximal response (Emax) at hCTR Y299A turned out to be 34 ± 5%; at hCTR K366A, 121 ± 6%; at hCTR V283A, 67 ± 6%; at hCTR L297A it was 52 ± 5%; at hCTR WT, 100 ± 3%.

What is called EC50 is the concentration needed to bring the measured effect to its halfway point. As to `CSCC[C@H](NC(=O)CNC(=O)[C@H](CO)NC(=O)[C@H](Cc1ccccc1)NC(=O)[C@H](CCCNC(=N)N)NC(=O)[C@H](Cc1c[nH]cn1)NC(=O)[C@H](Cc1ccccc1)NC(=O)[C@H](CC(N)=O)NC(=O)[C@H](CC(N)=O)NC(=O)[C@H](CC(C)C)NC(=O)[C@H](CC(N)=O)NC(=O)[C@H](CCCNC(=N)N)NC(=O)[C@H](Cc1c[nH]c2ccccc12)NC(=O)[C@H](Cc1ccc(O)cc1)NC(=O)[C@H](C)NC(=O)[C@H](CO)NC(=O)[C@H](CC(C)C)NC(=O)[C@@H](NC(=O)[C@@H]1CSSC[C@H](N)C(=O)N[C@@H](CO)C(=O)N[C@@H](CC(N)=O)C(=O)N[C@@H](CC(C)C)C(=O)N[C@@H](CO)C(=O)N[C@@H]([C@@H](C)O)C(=O)N1)C(C)C)C(=O)NCC(=O)N[C@@H](Cc1ccccc1)C(=O)NCC(=O)N1CCC[C@H]1C(=O)N[C@@H](CCC(=O)O)C(=O)N[C@H](C(=O)N1CCC[C@H]1C(N)=O)[C@@H](C)O` [pCT] (H-CSNLSTCVLSAYWRNLNNFHRFSGMGFGPETP-NH2; disulfide 1-7), the EC50 at hCTR Y299A (setting [1]) was 0.417 nM; on hCTR K366A (setting [1]) it was 1.48 nM; at hCTR V283A (setting [1]), 6.17 nM; at hCTR L297A (setting [1]) it was 2 nM; at hCTR WT (WT, IP1, CV1-FlpIn cells, 60 min, LiCl, mean ± S.E.M.), 1.38 nM. For the same molecule, the maximal response (Emax) at hCTR Y299A is 52 ± 3%; on hCTR K366A, 91 ± 6%; on hCTR V283A it was 100 ± 5%; on hCTR L297A, 68 ± 5%; at hCTR WT (WT, IP1 maximal response, mean ± S.E.M.), 100 ± 3%.

As for `CC(C)C[C@H](NC(=O)[C@H](CCCCN)NC(=O)CNC(=O)[C@H](CC(C)C)NC(=O)[C@@H](NC(=O)[C@@H]1CSSC[C@H](N)C(=O)N[C@@H](CO)C(=O)N[C@@H](CC(N)=O)C(=O)N[C@@H](CC(C)C)C(=O)N[C@@H](CO)C(=O)N[C@@H]([C@@H](C)O)C(=O)N1)C(C)C)C(=O)N[C@@H](CO)C(=O)N[C@@H](CCC(N)=O)C(=O)N[C@@H](CCC(=O)O)C(=O)N[C@@H](CC(C)C)C(=O)N[C@@H](Cc1c[nH]cn1)C(=O)N[C@@H](CCCCN)C(=O)N[C@@H](CC(C)C)C(=O)N[C@@H](CCC(N)=O)C(=O)N[C@H](C(=O)N[C@@H](Cc1ccc(O)cc1)C(=O)N1CCC[C@H]1C(=O)N[C@@H](CCCNC(=N)N)C(=O)N[C@H](C(=O)N[C@@H](CC(N)=O)C(=O)N[C@H](C(=O)NCC(=O)N[C@@H](CO)C(=O)NCC(=O)N[C@H](C(=O)N1CCC[C@H]1C(N)=O)[C@@H](C)O)[C@@H](C)O)[C@@H](C)O)[C@@H](C)O` [sCT], the Emax at hCTR Y299A came to 54 ± 5%; on hCTR K366A, 93 ± 5%; on hCTR V283A, 115 ± 6%; at hCTR L297A, 69 ± 7%; at hCTR WT it was 100 ± 3%.

For the origin of these results see article PMC5908784, “Extracellular loops 2 and 3 of the calcitonin receptor selectively modify agonist binding and efficacy” (Biochemical Pharmacology, 2018).
